According to patent US10399981B2, “Crystal form A of 7-(cyclopropylmethyl)-1-(((cis )-4-hydroxy-4-methylcyclohexyl)methyl)-3-methyl-1H-purine-2,6-(3H,7H)-dione for treating liver diseases” (GUANGDONG RAYNOVENT BIOTECH CO., LTD., priority 2015, dated 2019):
≈ marks a conversion by molar mass, not a printed value.

Legend:
[1] = target: T1, recombinant full-length human PDE2A protein (Homo sapiens, UniProt O00408); assay: In vitro evaluation on inhibition activities of PDE2 phosphodiesterase (fluorescence polarization, Transcreener AMP2/GMP2); format: biochemical; conditions: substrate 1 μM cGMP
T1 construct: A recombinant full-length human PDE2A protein; GST (N); made in house; host or cells: Sf9 insect cells (baculovirus)
Protocol: Experimental objective: the concentrations of AMP/GMP generated in the reaction system was detected by detecting a substituted AlexaFluor 633 fluorochrome on AMP/GMP antibodies through fluorescence polarization analysis, and IC50 of PDE2 phosphodiesterase against compound to be detected was calculated.
Buffer solution for determination: 10 mM Tris-HCl, pH 7.5, 5 mM MgCl2, 0.01% Brij 35, 1 mM DTT, and 1% DMSO.
Enzyme: A recombinant full-length human PDE2A protein was expressed by baculovirus in Sf9 insect cells using an N-terminal GST tag
Transcreener® AMP^2/GMP^2 antibody, AMP2/GMP2 AlexaFluor 633 fluorochrome
An enzyme solution was prepared from a freshly prepared buffer solution, and then added to a reaction cavity, a DMSO solution of compound to-be-detected was added through an Echo550 contactless nanoliter pipetting system, and then the resulting solution was preincubated for 10 min at room temperature. A substrate (1 μM cGMP) was added to initiate reaction, which was kept at room temperature for 1 h. […] Fluorescence polarization was detected using Ex/Em 620/688.
Fluorescence polarization intensity was converted to nM concentration through AMP/GMP standard curves, then relative enzymatic activity inhibition was calculated compared with DMSO blank control, and IC50 and curve thereof was calculated using Prism software package (GraphPad Software, San Diego Calif., USA).

[2] = Evaluation on pharmacokinetics of compound in SD rats; format: in vivo; conditions: male, Sprague-Dawley, rat, plasma; for clearance / AUC / half-life: single intravenous injection and oral administration; for clearance: read-out: Clearance rate; for AUC: read-out: Concentration integral AUC; for half-life: read-out: Half life T1/2 (converted)
Protocol: Experimental objective: To test the pharmacokinetics of a compound in SD rats
Experimental materials: Sprague Dawley rats (male, 200-300 g, 7-9 weeks old, Shanghai SLAC)
Pharmacokinetic characteristics of rodents after intravenous injection and oral administration of the compound were tested using a standard scheme. In the experiment, a candidate compound was prepared into a clear solution, which was administrated to rats by single intravenous injection and oral administration. The solvent for intravenous injection and oral administration is water solution or normal saline solution of hydroxypropyl 3 cyclodextrin at a certain proportion. A whole blood sample was collected within 24 hours, and 3000 g of the sample was centrifuged for 15 minutes. The supernatant was separated to obtain blood plasma samples, to which 4 times volume of an acetonitrile solution containing an internal standard substance was added to precipitate protein. After centrifuging, the supernatant was collected, equivalent volume of water was added, the resulting solution was recentrifuged, and the supernatant was collected for sample injection. The blood concentration was quantitatively analyzed by LC-MS/MS, and the pharmacokinetic parameters were calculated, such as peak concentration, time to peak, clearance rate, half life, area under the curve and bioavailability.

LPS-induced TNF-α = assay: In vitro influence of compound on LPS-induced TNF-α in blood (ELISA); format: cell-based, Sprague Dawley rats; conditions: rat blood, compound 100 uM, 5 h
Protocol: Experimental objective: to detect the influence of compound on LPS-induced TNF-α in blood of […] in vitro, and to evaluate inhibiting effects of the compound on LPS-induced TNF-α in blood of […].
Sprague Dawley rats (male, 210-260 g, 8-10 weeks old, Shanghai SLAC)
Rat TNF-alpha Quantikine ELISA Kit (R&D, #SRTA00)
The solution of compound to-be-detected at a concentration of 1 mM was prepared, and 40 μL (final concentration of the compound: 100 uM) was respectively added to a 48-well cell culture plate. After rats were anesthetized with isoflurane, blood samples were collected from their hearts (heparin anticoagulation). The blood was added to the to-be-detected compound present in the 48-well plate with 320 μL/well. The 48-well plate was incubated in a cell incubator for 30 min. Then 40 μL of LPS solution (100 ug/ml) was added, and fully mixed. The plate was further incubated in the incubator. 5 h later, the 48-well plate was taken out. The blood samples were transferred to 1.5 ml centrifuge tubes, and centrifuged in a centrifuge (4,500 rpm, 4° C., 5 minutes). The supernatant was separated to obtain blood plasma, which was subpackaged, quickly frozen, and kept in a refrigerator at −80° C. On the next day, the TNF-α levels in blood plasma samples were detected using an R&D ELISA kit.

[3] = Stability test of crystal form A solid (accelerated, 40° C./75% humidity, open); format: physicochemical
Protocol: A crystal form A was put in an open container at a constant temperature and humidity for accelerated test respectively at 40° C./75% humidity (open). Samples were collected in 1st, 2nd and 3rd months and tested, and the test results were compared with the initial test results on 0th day.

[4] = Solubility of crystal form A in different solvents; format: physicochemical; conditions: thermodynamic from solid, room temperature
Protocol: About 2 mg of crystal form A was weighed put in a 1.5 mL liquid phase vial, to which the following solvents were respectively added by pipettes by stages to dissolve the crystal form A while manually vibrating.

[5] = 40° C./75% humidity (open), 1 month
[6] = 40° C./75% humidity (open), 2 months
[7] = 40° C./75% humidity (open), 3 months

T1 sequence (O00408 whole entry): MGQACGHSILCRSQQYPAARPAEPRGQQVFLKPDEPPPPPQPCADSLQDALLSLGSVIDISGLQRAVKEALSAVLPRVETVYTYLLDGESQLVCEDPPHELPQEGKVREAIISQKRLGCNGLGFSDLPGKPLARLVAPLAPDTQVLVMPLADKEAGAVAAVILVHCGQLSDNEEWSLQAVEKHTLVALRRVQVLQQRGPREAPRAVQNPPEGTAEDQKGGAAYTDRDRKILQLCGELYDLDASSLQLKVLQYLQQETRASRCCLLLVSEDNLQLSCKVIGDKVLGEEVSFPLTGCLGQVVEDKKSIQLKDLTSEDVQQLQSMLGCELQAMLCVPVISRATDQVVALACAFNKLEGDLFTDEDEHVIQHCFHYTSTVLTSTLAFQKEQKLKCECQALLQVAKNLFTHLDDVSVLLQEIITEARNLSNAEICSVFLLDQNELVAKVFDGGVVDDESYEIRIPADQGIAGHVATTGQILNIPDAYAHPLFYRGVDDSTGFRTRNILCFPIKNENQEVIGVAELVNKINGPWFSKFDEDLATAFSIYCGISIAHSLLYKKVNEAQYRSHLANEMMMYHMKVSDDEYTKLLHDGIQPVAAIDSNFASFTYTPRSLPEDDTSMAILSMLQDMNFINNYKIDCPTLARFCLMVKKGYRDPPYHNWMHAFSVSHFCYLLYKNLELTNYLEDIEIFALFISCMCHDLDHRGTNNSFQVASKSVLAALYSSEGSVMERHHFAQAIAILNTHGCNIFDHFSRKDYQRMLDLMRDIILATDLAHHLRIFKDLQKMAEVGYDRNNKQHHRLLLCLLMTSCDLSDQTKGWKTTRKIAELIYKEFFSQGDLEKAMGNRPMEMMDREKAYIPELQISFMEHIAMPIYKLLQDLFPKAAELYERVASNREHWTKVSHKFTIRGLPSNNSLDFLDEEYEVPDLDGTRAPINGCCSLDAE

Cn1c(=O)n(C[C@H]2CC[C@@](C)(O)CC2)c(=O)c2c1ncn2CC1CC1 [Compound (I), 7-(cyclopropylmethyl)-1-(((cis)-4-hydroxy-4-methylcyclohexyl)methyl)-3-methyl-1H-purine-2,6-(3H, 7H)-dione]
IC50 [1]: 1 to 10 µM
bioavailability ([2]; oral administration, read-out: Bioavailability F): 47.9%
clearance [2]: 54.4 mL/min/kg
AUC [2]: 4.39 µM·h
half-life [2]: 47.6 min
TNF-α Inhibition Ratio (LPS-induced TNF-α): ++ (80% ≤ “++” < 100%)

Cn1c(=O)n(C[C@H]2CC[C@@](C)(O)CC2)c(=O)c2c1ncn2CC1CC1 [Crystal Form A, 7-(cyclopropylmethyl)-1-(((cis)-4-hydroxy-4-methylcyclohexyl)methyl)-3-methyl-1H-purine-2,6-(3H, 7H)-dione]
Appearance [3, 5]: White powder
Content [3, 5]: 101.4%
Total Impurities [3, 5]: 0.31%
Appearance [3, 6]: White powder
Content [3, 6]: 98.8%
Total Impurities [3, 6]: 0.34%
Appearance [3, 7]: White powder
Content [3, 7]: 101.8%
Total Impurities [3, 7]: 0.32%
Appearance ([3]; Initial, 0 month): White powder
Content ([3]; Initial, 0 month): 101.6%
Total Impurities ([3]; Initial, 0 month): 0.33%
solubility ([4]; aqueous with cosolvent or surfactant or cyclodextrin, Acetone-water (1:2)): ~1 mg/mL (≈ 2.89 mM)
solubility ([4]; aqueous with cosolvent or surfactant or cyclodextrin, Acetonitrile-water (1:1)): ~22.2 mg/mL (≈ 64.1 mM)
solubility ([4]; aqueous with cosolvent or surfactant or cyclodextrin, Ethanol-water (1:1)): ~16.3 mg/mL (≈ 47.1 mM)
solubility ([4]; aqueous with cosolvent or surfactant or cyclodextrin, Ethanol-water (3:1)): ~24.5 mg/mL (≈ 70.7 mM)
solubility ([4]; aqueous with cosolvent or surfactant or cyclodextrin, Isopropanol-water (1:1)): ~17.3 mg/mL (≈ 49.9 mM)
solubility ([4]; aqueous with cosolvent or surfactant or cyclodextrin, Methanol-water (1:1)): ~7.8 mg/mL (≈ 22.5 mM)
solubility ([4]; aqueous with cosolvent or surfactant or cyclodextrin, Methanol-water (3:1)): ~19 mg/mL (≈ 54.8 mM)
solubility ([4]; organic solvent or mixture, 2-methyltetrahydrofuran): ~24.2 mg/mL (≈ 69.9 mM)
solubility ([4]; organic solvent or mixture, Acetone): ~17.2 mg/mL (≈ 49.6 mM)
solubility ([4]; organic solvent or mixture, Acetonitrile): ~13 mg/mL (≈ 37.5 mM)
solubility ([4]; organic solvent or mixture, Butanone): ~37.2 mg/mL (≈ 107 mM)
solubility ([4]; organic solvent or mixture, Cyclohexane): < 1 mg/mL
solubility ([4]; organic solvent or mixture, Dioxane): > 57 mg/mL
solubility ([4]; organic solvent or mixture, Ethanol): ~11.2 mg/mL (≈ 32.3 mM)
solubility ([4]; organic solvent or mixture, Ethyl acetate): ~15.2 mg/mL (≈ 43.9 mM)
solubility ([4]; organic solvent or mixture, Isopropanol): ~10.1 mg/mL (≈ 29.2 mM)
solubility ([4]; organic solvent or mixture, Isopropyl acetate): ~12 mg/mL (≈ 34.6 mM)
solubility ([4]; organic solvent or mixture, Methanol): ~28.7 mg/mL (≈ 82.8 mM)
solubility ([4]; organic solvent or mixture, Methyl isobutyl ketone): ~10.9 mg/mL (≈ 31.5 mM)
solubility ([4]; organic solvent or mixture, Methyl tertiary butyl ether): ~2.6 mg/mL (≈ 7.51 mM)
solubility ([4]; organic solvent or mixture, Methylbenzene): < 1 mg/mL
solubility ([4]; organic solvent or mixture, Tetrahydrofuran): > 67 mg/mL
solubility ([4]; organic solvent or mixture, n-butanol): ~20.5 mg/mL (≈ 59.2 mM)
solubility ([4]; organic solvent or mixture, n-heptane): < 1 mg/mL
solubility ([4]; Water): < 1 mg/mL

CC(=O)CCCCn1c(=O)c2c(ncn2C)n(C)c1=O [Pentoxifylline, reference compound]
clearance [2]: 74.1 mL/min/kg
AUC [2]: 6.62 µM·h
half-life [2]: 11.5 min
